Non-standard residues stand in square brackets, D forms with d. Residues, ends and D or L forms follow the SMILES beside them. ξ: configuration not given here. *: point of attachment. AFC = O=c1cc(C(F)(F)F)c2ccc(N*)cc2o1; AMC = Cc1cc(=O)oc2cc(N*)ccc12; Cbz = O=C(OCc1ccccc1)*; ξP = O=C(O)C1CCCN1
Legend:
Format in all cases: biochemical
FAP [1] = target: T1, FAP (Homo sapiens, UniProt Q12884); test: Hydrolysis of C-terminal coumarin dipeptide substrates by FAP (kinetic constants); parameters: FAP (amino acids 38-760); FLAG (N); made in house; host or cells: 293 cells (secreted, purified from serum-free conditioned media); settings: for Km / Kcat: pH 7.4, NC = no cleavage up to 1 mM substrate
T1 sequence (Q12884 38-760): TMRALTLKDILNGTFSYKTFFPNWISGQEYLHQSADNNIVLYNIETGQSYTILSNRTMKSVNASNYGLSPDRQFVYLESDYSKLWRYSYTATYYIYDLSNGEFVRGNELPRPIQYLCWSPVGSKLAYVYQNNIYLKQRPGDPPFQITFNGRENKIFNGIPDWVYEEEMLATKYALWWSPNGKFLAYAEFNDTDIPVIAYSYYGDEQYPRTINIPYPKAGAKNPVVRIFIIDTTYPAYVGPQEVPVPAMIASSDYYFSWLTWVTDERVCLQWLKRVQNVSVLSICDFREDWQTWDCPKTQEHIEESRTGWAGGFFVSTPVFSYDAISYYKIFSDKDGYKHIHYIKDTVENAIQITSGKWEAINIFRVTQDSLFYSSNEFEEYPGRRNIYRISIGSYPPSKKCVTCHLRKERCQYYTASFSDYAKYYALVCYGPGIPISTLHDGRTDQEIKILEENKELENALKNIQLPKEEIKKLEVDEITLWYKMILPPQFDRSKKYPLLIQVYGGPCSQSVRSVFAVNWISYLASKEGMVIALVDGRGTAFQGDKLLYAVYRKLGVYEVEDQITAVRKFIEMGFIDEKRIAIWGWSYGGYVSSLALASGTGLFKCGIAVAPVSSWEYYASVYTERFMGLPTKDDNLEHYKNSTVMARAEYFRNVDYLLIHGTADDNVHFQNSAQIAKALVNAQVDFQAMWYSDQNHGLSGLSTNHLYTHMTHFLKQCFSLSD
Method: (§1) The relative cleavage rates by FAP and several dipeptidases of N-blocked (8) and unblocked (7) Gly-Pro dipeptide substrates were measured.
(§2) The cleavage (hydrolysis) rates of various C-terminal coumarin dipeptide substrates 7-16 by FAP and DPP-4 were measured (Tables 4 and 5). The amino-terminus of the substrates was unblocked and the amino acids were varied in Table 4. The amino-terminus of the substrates was blocked and the amino acids were varied in Table 5. To extend the results obtained with the dipeptide substrate library, kinetic parameters were determined for cleavage of the unblocked dipeptide substrates by FAP (Table 4). The catalytic efficiency (kcat/Km) for substrate cleavage was greatest with Ile-Pro-AFC, followed by Ala-Pro-, Gly-Pro- and Phe-Pro-AFC, consistent with the dipeptide substrate library results (FIG. 5). […] Kinetic constants for cleavage of Ala-Pro-AFC and Gly-Pro-AFC by DPP-4 were determined (Table 4). The catalytic efficiency for Ala-Pro-AFC hydrolysis was greater than that for Gly-Pro-AFC, and consistent with the dipeptide library.
(§3) Protease Assays—Protease activity was monitored continuously using a SpectraMax M2 microplate reader (Molecular Devices Corp., Sunnyvale Calif.) in the kinetic mode. Assays were conducted at 23° C. in 50 mM Tris (pH 7.4), 100 mM NaCl, 1 mM EDTA. The excitation/emission wavelengths for the different fluorogenic substrates were 360/460 nm (AMC), 400/505 nm (AFC), 340/425 nm (MNA), 340/510 nm (EDANS), and 337/425 nm (Abs). Standard curves of the appropriate fluorescent product versus concentration were used to convert relative fluorescence units to nmol of product produced. Substrates in the X-Pro-AMC library were used in rate assays at 5 μM final concentration. […] The kinetic parameters were calculated from Michaelis-Menten plots (V0 versus [S]) with nonlinear regression analysis using GraphPad software. kcat values were calculated under the assumption that each protease was 100% active.
(§4) When saturating amounts of substrate could not be achieved, catalytic efficiencies (kcat/Km) were determined under pseudo-first order conditions ([S]<<the estimated Km) and fit to the following equation: Ln[St/S0]=−kobst, where St is the concentration of substrate remaining at time t, S0 is the initial substrate concentration and kobs is the apparent first order substrate cleavage constant equal to (kcat/Km) times ET, the total enzyme concentration (Copeland, R. (2000) Enzymes, A Practical Introduction to Structure, Mechanism, and Data Analysis, 2nd Ed., John Wiley and Sons, Inc, New York). The linear relationship of Ln[St/S0] versus time allows calculation of kcat/Km by dividing the slope of the plot by ET.

DPP-4 [2] = target: T2, DPP-4 (Homo sapiens, UniProt P27487); test: Hydrolysis of C-terminal coumarin dipeptide substrates by DPP-4 (kinetic constants); parameters: DPP-4 (amino acids 39-766); FLAG (N); made in house; host or cells: 293 cells (secreted, purified from serum-free conditioned media)
T2 sequence (P27487 39-766): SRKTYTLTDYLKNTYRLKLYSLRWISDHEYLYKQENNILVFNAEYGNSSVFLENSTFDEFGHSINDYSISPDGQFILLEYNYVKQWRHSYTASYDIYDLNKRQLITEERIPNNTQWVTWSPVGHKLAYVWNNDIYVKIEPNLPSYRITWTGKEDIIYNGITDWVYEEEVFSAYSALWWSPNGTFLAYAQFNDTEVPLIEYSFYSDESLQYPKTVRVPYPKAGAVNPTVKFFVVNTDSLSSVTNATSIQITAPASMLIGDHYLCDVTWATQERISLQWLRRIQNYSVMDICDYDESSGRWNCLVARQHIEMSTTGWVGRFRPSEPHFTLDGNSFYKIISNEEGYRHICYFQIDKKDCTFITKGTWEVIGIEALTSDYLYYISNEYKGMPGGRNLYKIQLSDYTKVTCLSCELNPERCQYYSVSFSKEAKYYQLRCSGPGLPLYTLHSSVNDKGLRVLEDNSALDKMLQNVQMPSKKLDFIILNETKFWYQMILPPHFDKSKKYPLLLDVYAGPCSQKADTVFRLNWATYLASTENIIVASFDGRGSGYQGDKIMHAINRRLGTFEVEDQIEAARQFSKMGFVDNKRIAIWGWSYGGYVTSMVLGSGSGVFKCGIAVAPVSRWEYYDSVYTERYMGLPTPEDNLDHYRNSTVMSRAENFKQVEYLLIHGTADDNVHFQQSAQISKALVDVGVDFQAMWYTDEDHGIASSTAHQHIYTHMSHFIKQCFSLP
Method: as §1, §2, §3, §4

DPP-4 [3] = target: T2, DPP-4; test: Relative cleavage rates of coumarin (AMCC) dipeptide substrates by DPP-4; parameters: DPP-4 (amino acids 39-766); FLAG (N); made in house; host or cells: 293 cells (secreted, purified from serum-free conditioned media); settings: for relative cleavage rate by DPP-4: N-blocked Gly-Pro-AMCC substrates 6, normalized to N-unblocked Gly-Pro-AMCC; for relative cleavage rate by DPP-4 / cleavage of N-substituted-Gly-Pro-AMCC substrates by DPP-4 (in words): DPP-4 6.8 nM; for cleavage of N-substituted-Gly-Pro-AMCC substrates by DPP-4 (in words): substrate concentrations up to 1 mM
Method: (§5) The relative cleavage rates of a variety of N-blocked, C-terminal coumarin (AMCC) Gly-Pro dipeptide substrates 6 were measured. The rates were normalized to N-unblocked Gly-Pro-AMCC for FAP and DPP-4.
(§6) To examine whether FAP could cleave other N-substituted-Gly-Pro-based substrates, N-methyl-, formyl-, succinyl-, benzyloxycarbonyl-(Z-) and biotinyl-Gly-Pro-AMCC substrates 6 were synthesized and reacted with FAP (37 nM) and DPP-4 (6.8 nM).
(§7) Amino-terminus P2 was varied with the L-amino acids: alanine, aspartic acid, glutamic acid, phenylalanine, glycine, histidine, isoleucine, lysine, leucine, methionine, asparagine, proline, glutamine, arginine, serine, threonine, valine, tryptophan, and tyrosine (from left). AMCC=2-(7-amino-4-methyl-2-oxo-2H-chromen-3-yl)acetamide. For both enzymes, the amino acid adjacent in the model dipeptide substrate had little effect where the amino-terminus was unblocked. Hydrolysis rates of other P2-Pro-AMCC substrates by FAP and DPP-4 relative to Gly-Pro-AMCC include the following in Table 6:
as §3

FAP [4] = target: T1, FAP; test: Relative cleavage rates of coumarin (AMCC) dipeptide substrates by FAP; parameters: FAP (amino acids 38-760); FLAG (N); made in house; host or cells: 293 cells (secreted, purified from serum-free conditioned media); settings: for relative cleavage rate by FAP: N-blocked Gly-Pro-AMCC substrates 6, normalized to N-unblocked Gly-Pro-AMCC, FAP 37 nM
Method: as §5, §6, §7, §3

DPP-4 [5] = target: T2, DPP-4; test: Inhibition of DPP-4 by N-blocked boroPro compounds (progress curves); parameters: DPP-4 (amino acids 39-766); FLAG (N); made in house; host or cells: 293 cells (secreted, purified from serum-free conditioned media); settings: cleavage of substrate L-Ala-Pro-AFC
Method: The steady states of product formation in the absence (V0) and presence of inhibitor (Vi) were used to calculate apparent inhibition constants (Kiapp) by plotting V0/Vi−1 against inhibitor concentration.
Briefly, proteases were added to a reaction mixture containing inhibitor and substrate (Ac-Ala-AMC for APH, Z-Gly-Pro-AMC for POP, and Ala-Pro-AFC for all others) in assay buffer at 23° C. Protease activity was followed continuously as described above to monitor time-dependent inhibition. Data were plotted as V0/Vi−1 versus [I], where V0 is the rate if substrate hydrolysis in the absence of inhibitor, Vi is the steady state rate of substrate hydrolysis in the presence of inhibitor and [I] is the concentration of Ac-Gly-BoroPro.
KI values for inhibition of proteases by 5 were determined using the method of progress curves. Briefly, proteases (10-100 nM) were added to a reaction mixture containing inhibitor 5 (0-10 μM) and substrate AP-AFC in assay buffer at 23° C. […] Data were plotted as V0/Vi−1 versus [I], where V0 is the rate if substrate hydrolysis in the absence of inhibitor, Vi is the steady state rate of substrate hydrolysis in the presence of inhibitor and [I] is the concentration of 5. […] Ki, the true equilibrium inhibition constant was determined according to the following relationship: Ki=Kobs/(1+[S]/Km), where [S] is the concentration of substrate used in the assay and Km is the Michaelis constant for substrate cleavage.

[6] = FAP, substrates with unblocked N-termini, 23° C. in 50 mM Tris-HCl, 100 mM NaCl, 1 mM EDTA
[7] = FAP, substrates with unblocked N-termini, 23° C.
[8] = DPP-4, substrates with unblocked N-termini, 23° C., pH 7.4
[9] = P2-Pro-AMCC substrates, hydrolysis rates normalized to Gly-Pro-AMCC
[10] = FAP, substrates with blocked N-termini, 23° C.

Molecule	Km (FAP [1]; [6])	Kcat (FAP [1]; [7])	relative cleavage rate by DPP-4 (DPP-4 [3])	relative cleavage rate by FAP (FAP [4])	cleavage of N-substituted-Gly-Pro-AMCC substrates by DPP-4 (in words) (DPP-4 [3])	further results
C[C@H](N)C(=O)N1CCC[C@H]1C(=O)Nc1ccc2c(C(F)(F)F)cc(=O)oc2c1 [Ala-Pro-AFC 9, Ala-Pro-7-amino-4-trifluoromethylcoumarin] (H-Ala-Pro-{AFC})	244 ± 28 µM	14.2 ± 0.9 s⁻¹				Kcat (DPP-4 [2]; [8]): 45.6 ± 1.7 s⁻¹; Km (DPP-4 [2]; [8]): 16 ± 3 µM
CC[C@H](C)[C@H](N)C(=O)N1CCC[C@H]1C(=O)Nc1ccc2c(C(F)(F)F)cc(=O)oc2c1 [Ile-Pro-AFC 13, Ile-Pro-AFC] (H-Ile-Pro-{AFC})	106 ± 6 µM	6.9 ± 0.3 s⁻¹				Km, fold lower than the other P2-Pro-AFC substrates (FAP [1]; FAP): ~2.5 fold
O=C(O)c1ccc2c(c1)C(=O)OC21c2ccc(O)cc2Oc2cc(O)ccc21 [5-carboxyfluorescein]			0%	36%		
formyl-Gly-Pro-AMCC [HC(═O)]			7%	130%	low rate of hydrolysis	
N-methyl-Gly-Pro-AMCC					comparable to Gly-Pro-AMCC	
NC(Cc1ccccc1)C(=O)N1CCCC1C(=O)Nc1ccc2c(C(F)(F)F)cc(=O)oc2c1 (stereo not drawn) [Phe-Pro-AFC 10, Phe-Pro-AFC] (H-Phe-Pro-{AFC}; configuration not given here)	245 ± 22 µM	1.1 ± 0.1 s⁻¹				
succinyl-Gly-Pro-AMCC [HO2CCH2CH2C(═O)]			0%	0%	no cleavage	
Cc1cc(=O)oc2cc(NC(=O)[C@H](C)NC(=O)CN)ccc12 [Gly-Ala-AMC 11, Gly-Ala-AMC] (H-Gly-Ala-{AMC})						cleavage by FAP (in words) (FAP [1]): not cleaved
Cc1cc(=O)oc2cc(NC(=O)C(C)NC(=O)C(N)CCCCN)ccc12 (stereo not drawn) [Lys-Ala-AMC 12, Lys-Ala-AMC] (H-Lys-Ala-{AMC}; configuration not given here)	189 ± 20 µM	0.01 ± 0.001 s⁻¹				catalytic efficiency, fold less than for cleavage of P2-Pro-based peptides (FAP [1]; FAP): 400-1000 fold
biotinyl-Gly-Pro-AMCC			0%	40%	no cleavage	
CC(=O)N[C@H](C)C(=O)N1CCCC1B(O)O (some centres unmarked) [N-Ac-(D)Ala-boroPro]						Ki (DPP-4 [5]): > 40 µM
Cc1c(CC(N)=O)c(=O)oc2cc(NC(=O)[C@@H]3CCCN3C(=O)[C@@H](C)N)ccc12 [D-Ala]						Relative Hydrolysis rate by DPP-4 (DPP-4 [3]; [9]): 2; Relative Hydrolysis rate by FAP (FAP [4]; [9]): 0
Cc1cc(=O)oc2cc(NC(=O)C3CCCN3C(=O)CNC(=O)OCc3ccccc3)ccc12 (stereo not drawn) [Z-Gly-Pro-AMC 14, Benzyloxycarbonyl (Z)-Gly-Pro-7-amino-4-methylcoumarin] (Cbz-Gly-[ξP]-{AMC})						catalytic efficiency, fold lower than that for Gly-Pro-AFC (FAP [1]; FAP): about 3 fold; Kcat (FAP [1]; [10]): <30 s⁻¹; Km (FAP [1]; [10]): > 4 µM; DPP-4 activity against substrate (in words) (DPP-4 [2]): little activity
